Results: US11541028B2, “Peptide pharmaceuticals for treatment of NASH and other disorders” (Mederis Diabetes LLC, priority 2018, dated 2023)
Bridge positions count the residues as written; N and C are the ends. Square brackets hold non-standard residues; d marks the D form. Peptide text beside a SMILES is read from it. * marks the point of attachment. Melibiouronoyl(1β-O-dodecyl) = CCCCCCCCCCCCO[C@@H]1O[C@H](CO[C@H]2O[C@H](C(=O)*)[C@H](O)[C@H](O)[C@H]2O)[C@@H](O)[C@H](O)[C@H]1O; X1 = CCCCCCCCCCCCCCCCO[C@@H]1O[C@H](CO[C@H]2O[C@H](C(=O)*)[C@H](O)[C@H](O)[C@H]2O)[C@@H](O)[C@H](O)[C@H]1O; Aib = CC(C)(N)C(=O)O

Columns and labels:
human GLP-1 receptor = biological target: T1, human GLP-1 receptor (Homo sapiens, UniProt P43220); assay: DiscoveRx LeadHunter cellular assay, cAMP stimulation, GLP-1 receptor in CHO cells; type: cell-based; settings: human GLP-1 receptor in CHO cells (DiscoveRx); read-out: EC50 cAMP GLP-1 R
T1 construct: host or cells: CHO cells
Description: (§1) A further series of cellular assays was carried out with standard cellular assays (DiscoveRx, LeadHunter assays) using readout of cAMP stimulation or arrestin activation. Compounds were weighed precisely in an amount of about 1 mg and shipped to DiscoveRx for dilution and assay.

human glucagon receptor = biological target: T2, human glucagon receptor (Homo sapiens, UniProt P47871); assay: DiscoveRx LeadHunter cellular assay, cAMP stimulation, glucagon receptor in CHO cells; type: cell-based
T2 construct: host or cells: CHO cells
T2 sequence (P47871 26-477): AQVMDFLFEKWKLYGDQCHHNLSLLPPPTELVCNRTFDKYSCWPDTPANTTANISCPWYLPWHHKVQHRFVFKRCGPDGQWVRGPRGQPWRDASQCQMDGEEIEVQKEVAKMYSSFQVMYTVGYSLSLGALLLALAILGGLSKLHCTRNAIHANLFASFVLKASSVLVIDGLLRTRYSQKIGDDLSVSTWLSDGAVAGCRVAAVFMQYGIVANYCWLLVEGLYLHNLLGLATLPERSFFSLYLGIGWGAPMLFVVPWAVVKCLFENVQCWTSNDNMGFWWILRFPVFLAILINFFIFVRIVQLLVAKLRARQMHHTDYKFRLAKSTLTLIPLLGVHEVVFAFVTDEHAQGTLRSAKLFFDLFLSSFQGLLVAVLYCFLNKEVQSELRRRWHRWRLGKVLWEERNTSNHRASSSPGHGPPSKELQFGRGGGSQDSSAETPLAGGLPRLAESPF
Description: as §1

T1 sequence (P43220 24-463): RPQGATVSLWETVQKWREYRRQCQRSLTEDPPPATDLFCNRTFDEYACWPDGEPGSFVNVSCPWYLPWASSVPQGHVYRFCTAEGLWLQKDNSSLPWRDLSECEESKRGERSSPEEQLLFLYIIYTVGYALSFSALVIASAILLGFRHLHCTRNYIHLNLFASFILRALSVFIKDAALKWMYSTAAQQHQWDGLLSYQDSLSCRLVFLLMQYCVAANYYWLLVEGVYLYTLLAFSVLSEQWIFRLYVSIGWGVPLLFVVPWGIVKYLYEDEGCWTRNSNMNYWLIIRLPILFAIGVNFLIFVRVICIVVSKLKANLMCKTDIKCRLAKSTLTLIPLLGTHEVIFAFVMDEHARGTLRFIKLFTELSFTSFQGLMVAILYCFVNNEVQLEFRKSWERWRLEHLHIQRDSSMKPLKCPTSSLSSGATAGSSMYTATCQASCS

Row | Compound | EC50 (human GLP-1 receptor) [nM] | EC50 (human glucagon receptor) [nM]
1 | CCCCCCCCCCCCCCCCO[C@@H]1O[C@H](CO[C@H]2O[C@H](C(=O)NCCCC[C@H](NC(=O)[C@H](CC(=O)O)NC(=O)[C@H](CO)NC(=O)[C@@H](NC(=O)[C@H](Cc3ccccc3)NC(=O)[C@@H](NC(=O)CNC(=O)[C@H](CCC(N)=O)NC(=O)C(C)(C)NC(=O)[C@@H](N)Cc3c[nH]cn3)[C@@H](C)O)[C@@H](C)O)C(=O)N[C@@H](CO)C(=O)N[C@@H](CCCCN)C(=O)N[C@@H](Cc3ccc(O)cc3)C(=O)N[C@@H](CC(C)C)C(=O)N[C@@H](CC(=O)O)C(=O)N[C@H]3CCC(=O)NCCCC[C@@H](C(=O)N[C@@H](CCC(=O)O)C(=O)N[C@@H](Cc4ccccc4)C(=O)N[C@H](C(=O)N[C@@H](CCC(N)=O)C(=O)N[C@@H](Cc4c[nH]c5ccccc45)C(=O)N[C@@H](CC(C)C)C(=O)N[C@@H](CC(C)C)C(=O)N[C@@H](CCC(N)=O)C(=O)N[C@H](C(N)=O)[C@@H](C)O)[C@@H](C)CC)NC(=O)[C@H](C)NC(=O)[C@H](C)NC(=O)[C@H](CCC(N)=O)NC3=O)[C@H](O)[C@H](O)[C@H]2O)[C@@H](O)[C@H](O)[C@H]1O [EU-A1596] (H-H[Aib]QGTFTSDK(X1)SKYLDEQAAKEFIQWLLQT-NH2; lactam 16-20; N-terminus assumed) | 0.493 | 1.23
2 | CCCCCCCCCCCCO[C@@H]1O[C@H](CO[C@H]2O[C@H](C(=O)NCCCC[C@H](NC(=O)[C@H](CC(=O)O)NC(=O)[C@H](CO)NC(=O)[C@@H](NC(=O)[C@H](Cc3ccccc3)NC(=O)[C@@H](NC(=O)CNC(=O)[C@H](CCC(N)=O)NC(=O)C(C)(C)NC(=O)[C@@H](N)Cc3c[nH]cn3)[C@@H](C)O)[C@@H](C)O)C(=O)N[C@@H](CO)C(=O)N[C@@H](CCCCN)C(=O)N[C@@H](Cc3ccc(O)cc3)C(=O)N[C@@H](CC(C)C)C(=O)N[C@@H](CC(=O)O)C(=O)N[C@H]3CCC(=O)NCCCC[C@@H](C(=O)N[C@@H](CCC(=O)O)C(=O)N[C@@H](Cc4ccccc4)C(=O)N[C@H](C(=O)N[C@@H](CCC(=O)O)C(=O)N[C@@H](Cc4c[nH]c5ccccc45)C(=O)N[C@@H](CC(C)C)C(=O)N[C@@H](CC(C)C)C(=O)N[C@@H](CCC(N)=O)C(=O)N[C@H](C(N)=O)[C@@H](C)O)[C@@H](C)CC)NC(=O)[C@H](C)NC(=O)[C@H](C)NC(=O)[C@H](CCC(N)=O)NC3=O)[C@H](O)[C@H](O)[C@H]2O)[C@@H](O)[C@H](O)[C@H]1O [EU-A1598] (H-H[Aib]QGTFTSDK(Melibiouronoyl(1β-O-dodecyl))SKYLDEQAAKEFIEWLLQT-NH2; lactam 16-20; N-terminus assumed) | 0.026 | 0.199
3 | CCCCCCCCCCCCO[C@@H]1O[C@H](CO[C@H]2O[C@H](C(=O)NCCCC[C@H](NC(=O)[C@H](CC(=O)O)NC(=O)[C@H](CO)NC(=O)[C@@H](NC(=O)[C@H](Cc3ccccc3)NC(=O)[C@@H](NC(=O)CNC(=O)[C@H](CCC(N)=O)NC(=O)C(C)(C)NC(=O)[C@@H](N)Cc3c[nH]cn3)[C@@H](C)O)[C@@H](C)O)C(=O)N[C@@H](CO)C(=O)N[C@@H](CCCCN)C(=O)N[C@@H](Cc3ccc(O)cc3)C(=O)N[C@@H](CC(C)C)C(=O)N[C@@H](CC(=O)O)C(=O)N[C@H]3CCC(=O)NCCCC[C@@H](C(=O)N[C@@H](CCC(=O)O)C(=O)N[C@@H](Cc4ccccc4)C(=O)N[C@H](C(=O)N[C@@H](CCC(=O)O)C(=O)N[C@@H](Cc4c[nH]c5ccccc45)C(=O)N[C@@H](CC(C)C)C(=O)N[C@@H](CC(C)C)C(=O)N[C@@H](CCC(N)=O)C(=O)N[C@H](C(=O)O)[C@@H](C)O)[C@@H](C)CC)NC(=O)[C@H](C)NC(=O)[C@H](C)NC(=O)[C@H](CCC(N)=O)NC3=O)[C@H](O)[C@H](O)[C@H]2O)[C@@H](O)[C@H](O)[C@H]1O [EU-A1599] (H-H[Aib]QGTFTSDK(Melibiouronoyl(1β-O-dodecyl))SKYLDEQAAKEFIEWLLQT-OH; lactam 16-20; N-terminus assumed) | 0.061 | 0.317
4 | CCCCCCCCCCCCO[C@@H]1O[C@H](CO[C@H]2O[C@H](C(=O)NCCCC[C@H](N)C(=O)NCCCC[C@H](NC(=O)[C@@H](NC(=O)[C@H](Cc3ccccc3)NC(=O)[C@H](CCC(=O)O)NC(=O)[C@@H]3CCCCNC(=O)CC[C@H](NC(=O)[C@H](CC(=O)O)NC(=O)[C@H](CC(C)C)NC(=O)[C@H](Cc4ccc(O)cc4)NC(=O)[C@H](CCCCN)NC(=O)[C@H](CO)NC(=O)[C@H](Cc4ccc(O)cc4)NC(=O)[C@H](CC(=O)O)NC(=O)[C@H](CO)NC(=O)[C@@H](NC(=O)[C@H](Cc4ccccc4)NC(=O)[C@@H](NC(=O)CNC(=O)[C@H](CCC(N)=O)NC(=O)C(C)(C)NC(=O)[C@@H](N)Cc4c[nH]cn4)[C@@H](C)O)[C@@H](C)O)C(=O)N[C@@H](CCC(N)=O)C(=O)N[C@@H](C)C(=O)N[C@@H](C)C(=O)N3)[C@@H](C)CC)C(=O)N[C@@H](Cc3c[nH]c4ccccc34)C(=O)N[C@@H](CC(C)C)C(=O)N[C@@H](CC(C)C)C(=O)N[C@@H](CCC(N)=O)C(=O)N[C@H](C(N)=O)[C@@H](C)O)[C@H](O)[C@H](O)[C@H]2O)[C@@H](O)[C@H](O)[C@H]1O [EU-A1601] | 0.007 | 0.048
5 | CCCCCCCCCCCCCCO[C@@H]1O[C@H](CO[C@H]2O[C@H](C(=O)NCCCC[C@H](N)C(=O)NCCCC[C@H](NC(=O)[C@@H](NC(=O)[C@H](Cc3ccccc3)NC(=O)[C@H](CCC(=O)O)NC(=O)[C@@H]3CCCCNC(=O)CC[C@H](NC(=O)[C@H](CC(=O)O)NC(=O)[C@H](CC(C)C)NC(=O)[C@H](Cc4ccc(O)cc4)NC(=O)[C@H](CCCCN)NC(=O)[C@H](CO)NC(=O)[C@H](Cc4ccc(O)cc4)NC(=O)[C@H](CC(=O)O)NC(=O)[C@H](CO)NC(=O)[C@@H](NC(=O)[C@H](Cc4ccccc4)NC(=O)[C@@H](NC(=O)CNC(=O)[C@H](CCC(N)=O)NC(=O)C(C)(C)NC(=O)[C@@H](N)Cc4c[nH]cn4)[C@@H](C)O)[C@@H](C)O)C(=O)N[C@@H](CCC(N)=O)C(=O)N[C@@H](C)C(=O)N[C@@H](C)C(=O)N3)[C@@H](C)CC)C(=O)N[C@@H](Cc3c[nH]c4ccccc34)C(=O)N[C@@H](CC(C)C)C(=O)N[C@@H](CC(C)C)C(=O)N[C@@H](CCC(N)=O)C(=O)N[C@H](C(N)=O)[C@@H](C)O)[C@H](O)[C@H](O)[C@H]2O)[C@@H](O)[C@H](O)[C@H]1O [EU-A1602] | 0.035 | 0.162
6 | CCCCCCCCCCCCO[C@@H]1O[C@H](CO[C@H]2O[C@H](C(=O)N[C@@H](CCC(=O)NCCCC[C@H](NC(=O)[C@@H](NC(=O)[C@H](Cc3ccccc3)NC(=O)[C@H](CCC(=O)O)NC(=O)[C@@H]3CCCCNC(=O)CC[C@H](NC(=O)[C@H](CC(=O)O)NC(=O)[C@H](CC(C)C)NC(=O)[C@H](Cc4ccc(O)cc4)NC(=O)[C@H](CCCCN)NC(=O)[C@H](CO)NC(=O)[C@H](Cc4ccc(O)cc4)NC(=O)[C@H](CC(=O)O)NC(=O)[C@H](CO)NC(=O)[C@@H](NC(=O)[C@H](Cc4ccccc4)NC(=O)[C@@H](NC(=O)CNC(=O)[C@H](CCC(N)=O)NC(=O)C(C)(C)NC(=O)[C@@H](N)Cc4c[nH]cn4)[C@@H](C)O)[C@@H](C)O)C(=O)N[C@@H](CCC(N)=O)C(=O)N[C@@H](C)C(=O)N[C@@H](C)C(=O)N3)[C@@H](C)CC)C(=O)N[C@@H](Cc3c[nH]c4ccccc34)C(=O)N[C@@H](CC(C)C)C(=O)N[C@@H](CC(C)C)C(=O)N[C@@H](CCC(N)=O)C(=O)N[C@H](C(N)=O)[C@@H](C)O)C(=O)O)[C@H](O)[C@H](O)[C@H]2O)[C@@H](O)[C@H](O)[C@H]1O [EU-A1606] | 0.017 | 0.058
